Measured values published in patent US8945864B2, “Method of determining 1,5-anhydroglucitol, and reagent composition for determining 1,5-anhydroglucitol” (Ikeda Food Research Co., Ltd., priority 2006, dated 2015).

B1: sorbose dehydrogenase: recombinant sorbose dehydrogenase from Sinorhizobium sp. 97507, amino acid sequence SEQ ID NO: 2, produced in E. coli JM109/pUCNNT2_AGD1 (protein)
chain: MMEGFDYVIVGGGSSGCVLAARLSENPSVRVCLIEAGGRDRHPLIHMPVGFAKLTAGPMTWGLTTAPQKHANNREIPYAQARVLGGGSSINAEVYTRGHPRDYDRWVEEGADGWSFQEVKPYFLRSEGNTILSGEWHGTDGPLGVSNLPDPQPMTRAFVQSCQELGIPYNPDFNGPVQEGAGVYQTTIRNSRRCSAAVGYLRPALARKNLMLITGALVLRIVFQGRRAVGVEYSTGGAAKIARAESEVLVTSGAIGTPKLMMLSGVGPAASLRSHGIDVVQDMAGVGQNLHDHFGVDIVAELKGHDSLDKYNKFHWMLLAGIEYALFKSGPVASNVVEGGAFWYGDRASPYPDLQFHFLAGAGAEAGVPSVPKGSSGVTLNSYTVRPKSRGSVTLRSADPRALPIVDPNFLDDPDDLRISVEGIRISREIFGQPSLQKYIKTIRFPDESVRTQADFEAYARQYGRTSYHPTCTCKMGRDDMSVVDPQLRVHGLDGIRICDSSVMPSLVGSNTNAATIMIGEKAADLIRGNI
modifications: Sinorhizobium sp. 97507
B2: sorbose dehydrogenase (Sinorhizobium meliloti 1021) (protein)
chain: B1 chain

System: not listed separately
Assay: Optimal pH of sorbose dehydrogenase
Type: biochemical
Settings: buffers pH 3.71-9.11, 33.3 mM; FIG. 3

| Molecule | Optimal pH |
| --- | --- |
| B1 | 8.0 |

System: not listed separately
Assay: Optimal temperature of sorbose dehydrogenase
Type: biochemical
Settings: 50 mM potassium phosphate buffer, pH 7.0; 35° C. to 70° C.; FIG. 5

| Molecule | Optimal temperature |
| --- | --- |
| B1 | around 60 °C |

System: not listed separately
Assay: Temperature stability of sorbose dehydrogenase
Type: physicochemical
Settings: 45° C. for ten minutes, pH 7.0; FIG. 6

| Molecule | Residual ratio of enzyme activity |
| --- | --- |
| B1 | 77% |

Same assay, conditions: ten minutes, pH 7.0; FIG. 6

| Molecule | Temperature at which the enzyme is stable |
| --- | --- |
| B1 | ≤ 45 °C |

Substrate: OC[C@H]1OC[C@H](O)[C@@H](O)[C@@H]1O
Assay: Km value of sorbose dehydrogenase
Type: biochemical, Sinorhizobium sp. 97507
Settings: other: Km of the sorbose dehydrogenase to the substrate; pH 7.0; 37.0 °C
Description: (§1) One mL of a 0.1 M potassium phosphate buffer, pH 7.0, 1.0 mL of 1.0 M L-sorbose, 0.14 mL of 3 mM 2,6-dichlorophenol indophenol (DCIP), 0.2 mL of 3 mM 1-methoxy-5-methylphenazinium methyl sulfate, and 0.61 mL of water were added to a 3 mL quartz cell, and the quartz cell was set to a spectrophotometer equipped with a thermostat cell holder, and incubated at 37° C. for ten minutes. Then, 0.05 mL of the enzyme solution was added to the quartz cell, and changes in absorbance of DCIP at 600 nm (AABS600/min) was measured at 37° C. As the molar extinction coefficient of DCIP at pH 7.0 is known as 16.3 mM^−1, and the amount of enzyme that reduced 1 μmol of DCIP for one minute is defined as one unit. Following the definition, the concentration of enzyme activity was calculated based on the following equation. enzyme activity (units/mL)=(−ΔABS600/min×3.0×dilution rate)/(16.3×1.0×0.05)
(§2) Measurement conditions in the above “method of measuring enzyme activity” were suitably modified as necessary, and the optimal pH, pH stability, optimal temperature, temperature stability, substrate specificity, Km value, total molecular weight, subunit molecular weight, inhibitor, and product of the enzyme reaction were identified. The properties of the enzyme were evaluated in accordance with the following tests.
[…]. […]

| Molecule | Km |
| --- | --- |
| B2 | 82.5 mM |

Substrate: OCC1(O)OC[C@H](O)[C@@H](O)[C@@H]1O
Assay: Km value of sorbose dehydrogenase
Type: biochemical, Sinorhizobium sp. 97507
Settings: other: Km of the sorbose dehydrogenase to the substrate; pH 7.0; 37.0 °C
Description: as §1, §2
[…]. […]

| Molecule | Km |
| --- | --- |
| B2 | 65.6 mM |

Biological target: T1, sorbose dehydrogenase (Sinorhizobium meliloti, UniProt Q92YU0)
Assay: Inhibitor test: additive in the reaction solution for the activity measurement
Type: biochemical, Sinorhizobium sp. 97507
Settings: not given

| Molecule | Relative activity (%) | Inhibition of the sorbose dehydrogenase (in words) |
| --- | --- | --- |
| [Cl][Pb][Cl] [PbCl2] | 83% | – |
| [Ca+2].[Cl-].[Cl-] [CaCl2] | 92% | – |
| [Cl][Mn][Cl] [MnCl2] | 11% | remarkably inhibited |
| CoCl2 | 86% | – |
| [Cl-].[Cl-].[Mg+2] [MgCl2] | 93% | – |
| OO [H2O2] | 98% | – |
| [Cl][Ni][Cl] [NiCl2] | 80% | – |
| [N-]=[N+]=[N-].[Na+] [NaN3] | 115% | – |
| Oc1cccc2cccnc12 [8-quinolinol] | 106% | – |
| [Cl][Cd][Cl] [CdCl2] | 91% | – |
| NN=C(N)N.O=S(=O)(O)O [Aminoguanidine sulfate] | 91% | – |
| [Cl-].[Na+] [NaCl] | 85% | – |
| O=C([O-])CN(CCN(CC(=O)O)CC(=O)O)CC(=O)[O-].[Na+].[Na+] [EDTA-2Na] | 102% | – |

Same assay, conditions: additive final concentration 0.5 mM; control without additive = 100%

| Molecule | Relative activity (%) |
| --- | --- |
| [Cl][Sn][Cl] [SnCl2] | 86% |

Same assay, conditions: additive final concentration 1.0 mM; control without additive = 100%

| Molecule | Relative activity (%) |
| --- | --- |
| [Ba+2].[Cl-].[Cl-] [BaCl2] | 80% |
| [Cl-].[Li+] [LiCl] | 98% |
| [Cl-].[Cl-].[Zn+2] [ZnCl2] | 98% |
| [Cl][Fe]([Cl])[Cl] [FeCl3] | 89% |
| 2-(p-)nitrobenzoic acid | 75% |
| O=C(O)CC(O)C(=O)O (racemic) [DL-malic acid] | 85% |
| O=C(O)C(O)C(O)C(=O)O (racemic) [DL-tartaric acid] | 86% |
| O=C(O)C(O)C(O)C(=O)O (stereo not drawn) [meso-tartaric acid] | 94% |
| [Cl][Al]([Cl])[Cl] [AlCl3] | 109% |
| NC(N)=O [Urea] | 92% |
| N[C@@H]1CONC1=O [D-cycloserine] | 90% |
| [Cl][Cu][Cl] [CuCl2] | 0% |
| Triton X-100 | 39% |
| Acriflavin | 66% |
| [Cl][Hg][Cl] [HgCl2] | 0% |

Same assay, conditions: additive final concentration 1.0 mM; control without additive = 100%; read-out: Relative activity (%)

| Molecule | activity at 1000 µM |
| --- | --- |
| CCN1C(=O)C=CC1=O [N-ethylmaleimide] | 88% |
| c1ccc(-c2ccccn2)nc1 [2,2′-bipyridine] | 88% |
| O=S(=O)(O)c1cc(O)c(O)c(S(=O)(=O)O)c1 [Tiron] | 89% |
| c1cnc2c(c1)ccc1cccnc12 [1,10-phenanthroline] | 77% |

Same assay, conditions: heavy metal ions, 1 mM

| Molecule | Inhibition of the sorbose dehydrogenase (in words) |
| --- | --- |
| [Cl][Cu][Cl] [CuCl2] | remarkably inhibited |
| [Cl][Hg][Cl] [HgCl2] | remarkably inhibited |

Same assay, conditions: read-out: Relative activity (%)

| Molecule | activity at 1000 µM |
| --- | --- |
| O=C(O)c1ccccc1 [Benzoic acid] | 101% |
| O=C(O)/C=C/C(=O)O [Fumaric acid] | 99% |
| O=C(O)CI [Iodoacetic acid] | 83% |
| O=C(O)/C=C\C(=O)O [Maleic acid] | 82% |
| O=C(O)CC(O)(CC(=O)O)C(=O)O [Citric acid] | 86% |

Biological target: T1, sorbose dehydrogenase
Assay: Substrate specificity of sorbose dehydrogenase (relative reactivity, DCIP method)
Type: biochemical, Sinorhizobium sp. 97507
Settings: not given
Description: as §1, §2
[…]. The results are shown as a relative value of each substrate with reference to the value of activity of L-sorbose as a standard.

| Molecule | Effect of the sorbose dehydrogenase on the substrate (in words) |
| --- | --- |
| CO [methanol] | little effect |

Same assay, conditions: substrate 333 mM (lactose 167 mM)

| Molecule | Effect of the sorbose dehydrogenase on the substrate (in words) |
| --- | --- |
| OC[C@@H](O)[C@@H](O)CO [meso-erythritol] | little effect |
| OC[C@@H](O)[C@@H](O)[C@H](O)[C@@H](O)CO [D-sorbitol] | little effect |
| O[C@H]1[C@H](O)[C@@H](O)[C@H](O)[C@@H](O)[C@H]1O [inositol] | little effect |
| OC[C@@H](O)[C@H](O)[C@@H](O)CO [Xylitol] | little effect |
| OCC(O)CO [Glycerol] | little effect |
| C[C@H](O)[C@H](O)[C@@H](O)[C@@H](O)C=O [L-rhamnose] | little effect |

Same assay, conditions: substrate final concentration 333 mM; […]

| Molecule | Relative activity (%) |
| --- | --- |
| OCC(O)CO [Glycerol] | 0% |

Same assay, conditions: substrate final concentration 333 mM; relative to activity of L-sorbose as standard (100)

| Molecule | Relative activity (%) |
| --- | --- |
| OC[C@@H](O)[C@H](O)[C@@H](O)CO [Xylitol] | 0.89% |
